Residue numbers refer to the chain shown, from its start.
Experiments:
[1] = biological target: T1, mutant TREK-1 channels (Homo sapiens, UniProt O95069, Q98A); assay: Whole-cell voltage clamp of mutant TREK-1 channels; type: cell-based; conditions: Q83A mutant
T1 construct: expressed in transfected cells; host or cells: CHO cells, transient transfection
T1 sequence (O95069 1-411 isoform O95069-2 Q83A): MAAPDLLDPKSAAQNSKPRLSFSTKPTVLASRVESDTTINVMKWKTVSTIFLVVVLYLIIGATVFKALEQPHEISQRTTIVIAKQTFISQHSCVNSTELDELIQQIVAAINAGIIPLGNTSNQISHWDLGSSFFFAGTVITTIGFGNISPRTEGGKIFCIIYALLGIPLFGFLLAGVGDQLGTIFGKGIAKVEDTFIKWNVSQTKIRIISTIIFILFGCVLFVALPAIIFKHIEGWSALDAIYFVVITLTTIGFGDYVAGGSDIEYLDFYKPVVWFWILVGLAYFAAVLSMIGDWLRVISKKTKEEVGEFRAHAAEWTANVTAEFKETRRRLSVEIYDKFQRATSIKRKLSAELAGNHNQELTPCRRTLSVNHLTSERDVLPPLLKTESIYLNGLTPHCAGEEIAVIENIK
From the text: (§1) cDNA of the human TREK-1, TREK-2 and TRAAK channels were subcloned into the pEGFPN1 expression vector (Invitrogen), respectively. Mutations were introduced into TREK-1 or TRAAK by PCR using the QuickChange XL sitedirected mutagenesis kit (Agilent Technologies) and were subsequently confirmed by DNA sequencing.
(§2) Chinese hamster ovary (CHO) cells were provided by the Cell Bank of Chinese Academy of Sciences (Shanghai, China). CHO cells were maintained in DMEM/F12 (Gibco) supplemented with 10% fetal bovine serum (Gibco) and 100 μg ml^−1 penicillin-streptomycin (Cellgro) in a humidified incubator at 37 °C (5% CO2). For electrophysiology experiments, cells plated in 35 mm tissue culture dishes (Corning Incorporated) were transiently transfected with the plasmids using PolyJet™ reagent (SignaGen) according to the manufacturer’s instructions. Primers used in this study are listed in Supplementary Table 4.
(§3) All electrophysiological recordings were obtained using patch-clamp recordings in two different configurations: (1) whole cell for macroscopic current dose–response curves; and (2) outside-out and inside-out for macroscopic currents recordings.
(§4) All patch-clamp recordings were conducted 36–96 h after transfection with an Axopatch-200B amplifier (Molecular Devices) at room temperature (23–25 °C). The microelectrodes fashioned from 1.5 mm thin-walled borosilicate glass with filament were pulled from Flaming/Brown type micropipette puller (P-97; SUTTER INSTRUMENT) with the resistances of 3–7 MΩ (whole cell) or 7–15 MΩ (outside-out) when filled with a solution containing (in mM): 140 KCl, 2 MgCl2, 10 EGTA, 1 CaCl2, 10 HEPES (pH 7.3, adjusted with KOH). External solution contained (in mM): 150 NaCl, 5 KCl, 0.5 CaCl2, 1.2 MgCl2, 10 HEPES (pH 7.3, adjusted with NaOH). The current signals were filtered at 1 kHz and digitized at a 10 kHz sampling frequency by using DigiData 1440 A.
(§5) Data of whole-cell voltage clamp experiments were fitted using doseResp function. […]

[2] = biological target: T2, mutant TREK-1 channels (Homo sapiens, UniProt O95069, T94A); assay: Whole-cell voltage clamp of mutant TREK-1 channels; type: cell-based; conditions: T79A mutant
T2 construct: expressed in transfected cells; host or cells: CHO cells, transient transfection
T2 sequence (O95069 1-411 isoform O95069-2 T79A): T1 sequence (O95069 1-411 isoform O95069-2 Q83A) with T79A, A83Q
From the text: as §1, §2, §3, §4, §5

[3] = biological target: T3, mutant TREK-1 channels (Homo sapiens, UniProt O95069, Q120A); assay: Whole-cell voltage clamp of mutant TREK-1 channels; type: cell-based; conditions: Q105A mutant
T3 construct: expressed in transfected cells; host or cells: CHO cells, transient transfection
T3 sequence (O95069 1-411 isoform O95069-2 Q105A): T1 sequence (O95069 1-411 isoform O95069-2 Q83A) with A83Q, Q105A
From the text: as §1, §2, §3, §4, §5

[4] = system: mice; assay: Forced swimming test; type: in vivo, Male C57BL/6 mice; conditions: chronic i.p. administration 10 days; TKDC 0.5, 1, 5 mg kg-1; fluoxetine 10 mg kg-1; vs vehicle
Description: Male C57BL/6 mice, aged 8 weeks (weighing 18–20 g) were used for acute and chronic drug administration and behavioral tests. The mice were housed four per cage under a 12-h light–dark cycle. Mice were raised under stable conditions with food and water ad libitum. All animal studies and experimental procedures were approved by the Animal Care Committees of the Shanghai Institute of Materia Medica, Chinese Academy of Sciences, and experiments were carried out in accordance with EU Directive 2010/63/EU on the protection of animals used for scientific purposes. […] The mice were removed to a sound-attenuating testing room 3–4 h before testing. The behavioral tests were carried out 30 min and 24 h after acute and chronic drugs administration, respectively.
The mice were performed under normal light. The apparatus was a transparent Plexiglas cylinder with 30 cm height × 10 cm diameter and the water temperature at 23–25 °C were set to prevent mice from touching the bottom with their limbs. Mice were allowed to swim for 8 min, and their activity was videotaped. There was an extra 15-min swimming in the previous day. The duration of immobility defined as floating or remaining motionless was assessed. To avoid extremely active at the beginning of swimming, the first 2 min of swimming was also excluded as the tail suspension test. […]

CS(=O)(=O)N(CC(=O)N1CCc2ccccc2C1)c1ccc(Cl)cc1 [TKDC, N-(4-cholorphenyl)-N-(2-(3,4-dihydrosioquinolin-2(1H)-yl)-2-oxoethyl)methanesulfonamide]
IC50 [1]: 2400 ± 600 nM
IC50 [2]: 2400 ± 400 nM
IC50 [3]: 2200 ± 500 nM
immobility in the forced swimming test [4]: decrease in immobility
